Laboratory results: PubChem BioAssay AID200 (DTP/NCI, 2004)
Several values for one entry are separate records, joined by “and”; a condition that tells them apart may be missing. Identical values can stand only once. Inconclusive results and toxic doses are left out. Where a SMILES comes first, the peptide text is derived from it.

System: B6C3F1 mice, B16 melanoma ip, median survival T/C
Experiment: NCI In Vivo Anticancer Drug Screen. Data for tumor model B16 Melanoma (intraperitoneal) in B6C3F1 mice
Conditions: endpoint: median survival time, higher = longer survival
Outline: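 Transplantable tumor in mice; treated vs vehicle control groups; survival or tumor size measured; value = T/C ratio.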

[1] = dose: 100.0 mg/kg/injection, schedule: Q01DX009 (ip), vehicle: Klucel (hydroxypropylcellulose) (HPC)
[2] = dose: 200.0 mg/kg/injection, schedule: Q01DX009 (ip), vehicle: Klucel (hydroxypropylcellulose) (HPC)
[3] = dose: 1.56 mg/kg/injection, schedule: Q01DX009 (ip), vehicle: saline
[4] = dose: 3.12 mg/kg/injection, schedule: Q01DX009 (ip), vehicle: saline
[5] = dose: 6.25 mg/kg/injection, schedule: Q01DX009 (ip), vehicle: saline
[6] = dose: 12.5 mg/kg/injection, schedule: Q01DX009 (ip), vehicle: saline
[7] = dose: 25.0 mg/kg/injection, schedule: Q01DX009 (ip), vehicle: saline
[8] = dose: 50.0 mg/kg/injection, schedule: Q01DX009 (ip), vehicle: saline with Tween-80
[9] = dose: 1.56 mg/kg/injection, schedule: Q01DX009 (ip), vehicle: saline with Tween-80
[10] = dose: 3.12 mg/kg/injection, schedule: Q01DX009 (ip), vehicle: saline with Tween-80
[11] = dose: 6.25 mg/kg/injection, schedule: Q01DX009 (ip), vehicle: saline with Tween-80
[12] = dose: 12.5 mg/kg/injection, schedule: Q01DX009 (ip), vehicle: saline with Tween-80
[13] = dose: 100.0 mg/kg/injection, schedule: Q01DX009 (ip), vehicle: saline with Tween-80
[14] = dose: 200.0 mg/kg/injection, schedule: Q01DX009 (ip), vehicle: saline with Tween-80
[15] = dose: 50.0 mg/kg/injection, schedule: Q01DX009 (ip), vehicle: saline
[16] = dose: 50.0 mg/kg/injection, schedule: Q01DX009 (ip), vehicle: Klucel (hydroxypropylcellulose) (HPC)
[17] = dose: 12.0 mg/kg/injection, schedule: Q01DX009 (ip), vehicle: Klucel (hydroxypropylcellulose) (HPC)

With CC(C)CC(NC(=O)CNC(=O)C(CC(C)C)NC(=O)CN)C(=O)O (configuration not stated) (H-GLGL-OH; configuration not given here) the T/C [1] was 120 % of control, the T/C [2] was 118 % of control and the T/C (dose: 400.0 mg/kg/injection, schedule: Q01DX009 (ip), vehicle: Klucel (hydroxypropylcellulose) (HPC)) was 122 % of control.

With [Cl][Pt+2][Cl].[NH-]c1cc2ccccc2cc1[NH-] the T/C (dose: 20.0 mg/kg/injection, schedule: Q01DX009 (ip), vehicle: saline with Tween-80) was 89 % of control, the T/C (dose: 40.0 mg/kg/injection, schedule: Q01DX009 (ip), vehicle: saline with Tween-80) was 104 % of control and the T/C (dose: 80.0 mg/kg/injection, schedule: Q01DX009 (ip), vehicle: saline with Tween-80) was 98 % of control. For the same molecule, the T/C (dose: 160.0 mg/kg/injection, schedule: Q01DX009 (ip), vehicle: saline with Tween-80) was 99 % of control and the T/C (dose: 320.0 mg/kg/injection, schedule: Q01DX009 (ip), vehicle: saline with Tween-80) was 111 % of control.

With Cc1c2c(ccc3ccccc32)c[n+]2ccccc12 the T/C [3] was 89 % of control, the T/C [4] was 103 % of control and the T/C [5] was 105 % of control. The T/C [6] was 108 % of control and the T/C [7] was 108 % of control.

In the case of O=P(O)(NCCCl)NCCCl, the T/C (dose: 25.0 mg/kg/injection, schedule: Q01DX001 (ip), vehicle: saline with Tween-80) is reported as 114 % of control and 119 % of control, the T/C (dose: 50.0 mg/kg/injection, schedule: Q01DX001 (ip), vehicle: saline with Tween-80) is reported as 115 % of control and the T/C (dose: 100.0 mg/kg/injection, schedule: Q01DX001 (ip), vehicle: saline with Tween-80) is reported as 159 % of control and 161 % of control. For the same molecule, the T/C (dose: 200.0 mg/kg/injection, schedule: Q01DX001 (ip), vehicle: saline with Tween-80) was 168 % of control and 182 % of control.

For CN(C)CCNc1ccc(CO)c2sc3ccc(O)cc3c(=O)c12, the T/C (dose: 18.0 mg/kg/injection, schedule: Q01DX009 (ip), vehicle: saline with Tween-80) was 327 % of control, the T/C (dose: 30.0 mg/kg/injection, schedule: Q01DX009 (ip), vehicle: saline with Tween-80) was 218 % of control and the T/C [8] was 295 % of control. For the same molecule, the T/C (dose: 83.33 mg/kg/injection, schedule: Q01DX009 (ip), vehicle: saline with Tween-80) was 327 % of control.

In the case of COc1ccc(C(=O)C(CN(C)C)CN(C)C)cc1, the T/C [3] is reported as 92 % of control, the T/C [4] is reported as 96 % of control and the T/C [5] is reported as 94 % of control. For the same molecule, the T/C [6] was 97 % of control and the T/C [7] was 102 % of control.

For C=CC(=O)N1CN(C(=O)C=C)CN(C(=O)C=C)C1, the T/C (dose: 0.78 mg/kg/injection, schedule: Q01DX009 (ip), vehicle: saline with Tween-80) was 99 % of control, the T/C [9] was 100 % of control and the T/C [10] was 100 % of control. For the same molecule, the T/C [11] was 106 % of control and the T/C [12] was 86 % of control.

With c1ccc2[nH]ncc2c1 the T/C [8] was 107 % of control, the T/C [13] was 104 % of control and the T/C [14] was 102 % of control.

In the case of S=c1c2[nH]cnc2ncn1CCSC1=NC=NC2=NC=NC21 (configuration not stated), the T/C [6] is reported as 98 % of control, the T/C [7] is reported as 104 % of control and the T/C [15] is reported as 92 % of control. The T/C (dose: 400.0 mg/kg/injection, schedule: Q01DX009 (ip), vehicle: saline) was 89 % of control.

With CC(=O)O[C@H]1C(=O)[C@@]2(C)[C@H]([C@H](OC(=O)c3ccccc3)[C@]3(O)C[C@H](OC(=O)[C@H](O)[C@@H](NC(=O)c4ccccc4)c4ccccc4)C(C)=C1C3(C)C)[C@]1(OC(C)=O)CO[C@@H]1C[C@@H]2O the T/C (dose: 1.25 mg/kg/injection, schedule: Q01DX008 (ip), vehicle: Klucel (hydroxypropylcellulose) (HPC)) was 187 % of control, the T/C (dose: 1.25 mg/kg/injection, schedule: Q01DX009 (ip), vehicle: Klucel (hydroxypropylcellulose) (HPC)) was 155 % of control and 171 % of control and the T/C (dose: 1.88 mg/kg/injection, schedule: Q01DX009 (ip), vehicle: Klucel (hydroxypropylcellulose) (HPC)) was 213 % of control. For the same molecule, the T/C (dose: 2.5 mg/kg/injection, schedule: Q01DX008 (ip), vehicle: Klucel (hydroxypropylcellulose) (HPC)) was 221 % of control, the T/C (dose: 3.75 mg/kg/injection, schedule: Q01DX009 (ip), vehicle: Klucel (hydroxypropylcellulose) (HPC)) was 225 % of control and the T/C (dose: 5.0 mg/kg/injection, schedule: Q01DX008 (ip), vehicle: Klucel (hydroxypropylcellulose) (HPC)) was 232 % of control. The T/C (dose: 6.25 mg/kg/injection, schedule: Q04DX003 (ip), vehicle: Klucel (hydroxypropylcellulose) (HPC)) was 174 % of control and 186 % of control, the T/C (dose: 7.5 mg/kg/injection, schedule: Q01DX009 (ip), vehicle: Klucel (hydroxypropylcellulose) (HPC)) was 327 % of control and the T/C (dose: 10.0 mg/kg/injection, schedule: Q01DX008 (ip), vehicle: Klucel (hydroxypropylcellulose) (HPC)) was 112 % of control. The T/C (dose: 10.0 mg/kg/injection, schedule: Q01DX009 (ip), vehicle: other) was 154 % of control and 175 % of control, the T/C (dose: 12.5 mg/kg/injection, schedule: Q04DX003 (ip), vehicle: Klucel (hydroxypropylcellulose) (HPC)) was 201 % of control and 231 % of control and the T/C (dose: 20.0 mg/kg/injection, schedule: Q01DX008 (ip), vehicle: Klucel (hydroxypropylcellulose) (HPC)) was 92 % of control. The T/C (dose: 25.0 mg/kg/injection, schedule: Q04DX003 (ip), vehicle: Klucel (hydroxypropylcellulose) (HPC)) was 237 % of control and 254 % of control, the T/C (dose: 30.0 mg/kg/injection, schedule: Q01DX009 (ip), vehicle: Klucel (hydroxypropylcellulose) (HPC)) was 89 % of control and the T/C (dose: 50.0 mg/kg/injection, schedule: Q04DX003 (ip), vehicle: Klucel (hydroxypropylcellulose) (HPC)) was 169 % of control and 222 % of control. The T/C (dose: 100.0 mg/kg/injection, schedule: Q04DX003 (ip), vehicle: Klucel (hydroxypropylcellulose) (HPC)) was 118 % of control.

For NC(CNC(=O)CBr)C(=O)O (configuration not stated), the T/C (dose: 6.25 mg/kg/injection, schedule: Q01DX009 (ip), vehicle: water) was 112 % of control and 117 % of control and 104 % of control, the T/C (dose: 12.5 mg/kg/injection, schedule: Q01DX009 (ip), vehicle: water) was 116 % of control and 118 % of control and the T/C (dose: 50.0 mg/kg/injection, schedule: Q01DX009 (ip), vehicle: water) was 153 % of control.

In the case of CCCCCCCCCCCCOP(N)(=O)OCCCCCCCCCCCC, the T/C [7] is reported as 100 % of control, the T/C [15] is reported as 90 % of control and the T/C (dose: 100.0 mg/kg/injection, schedule: Q01DX009 (ip), vehicle: saline) is reported as 89 % of control.

For COC(=O)Nc1cn2ccc(C(Cl)=C(Cl)Cl)cc2n1, the T/C [16] was 111 % of control and the T/C [1] was 116 % of control.

CN(C)CCCN1c2ccccc2Sc2ccc(Cl)cc21 was tested, and the T/C (dose: 4.68 mg/kg/injection, schedule: Q01DX009 (ip), vehicle: saline) was 92 % of control, the T/C (dose: 9.37 mg/kg/injection, schedule: Q01DX009 (ip), vehicle: saline) was 104 % of control and the T/C (dose: 18.75 mg/kg/injection, schedule: Q01DX009 (ip), vehicle: saline) was 105 % of control.

In the case of C/C=C/C=C/c1cc2cc3c(c(O)c2c(=O)[nH]1)C1(CC3)C(O)=c2c(=O)c3c(=O)cc(OC)c(=O)c=3c(=O)c2=C1O (configuration not stated), the T/C (dose: 0.75 mg/kg/injection, schedule: Q01DX009 (ip), vehicle: Klucel (hydroxypropylcellulose) (HPC)) is reported as 114 % of control and 117 % of control, the T/C (dose: 1.5 mg/kg/injection, schedule: Q01DX009 (ip), vehicle: Klucel (hydroxypropylcellulose) (HPC)) is reported as 114 % of control and 107 % of control and the T/C (dose: 3.0 mg/kg/injection, schedule: Q01DX009 (ip), vehicle: Klucel (hydroxypropylcellulose) (HPC)) is reported as 116 % of control. For the same molecule, the T/C (dose: 6.0 mg/kg/injection, schedule: Q01DX009 (ip), vehicle: Klucel (hydroxypropylcellulose) (HPC)) was 115 % of control and the T/C [17] was 115 % of control.

In the case of CN1N=C(N)c2cn(C3OC(COP(=O)(O)O)C(O)C3O)c3ncnc1c23 (configuration not stated), the T/C [17] is reported as 93 % of control, the T/C (dose: 25.0 mg/kg/injection, schedule: Q01DX009 (ip), vehicle: Klucel (hydroxypropylcellulose) (HPC)) is reported as 93 % of control and the T/C [16] is reported as 96 % of control. The T/C [1] was 91 % of control.

O=C(CCCN1CCC(C(O)c2ccc(F)cc2)CC1)c1ccc(F)cc1 (configuration not stated) was tested, and the T/C [9] was 92 % of control, the T/C [10] was 96 % of control and the T/C [11] was 103 % of control. For the same molecule, the T/C [12] was 92 % of control.

CC(C)(C)OC(=O)NC(Cc1ccc(O)cc1)C(=O)ON1C(=O)CCC1=O (configuration not stated) was tested, and the T/C [1] was 101 % of control and the T/C [2] was 96 % of control.

In the case of O=C1[C@H]2CCC[C@H]2[C@H]2CCC[C@@H]12, the T/C [11] is reported as 102 % of control, the T/C [12] is reported as 99 % of control and the T/C (dose: 25.0 mg/kg/injection, schedule: Q01DX009 (ip), vehicle: saline with Tween-80) is reported as 100 % of control. The T/C [8] was 100 % of control and the T/C [13] was 100 % of control.

In the case of O=c1cc(-c2ccccc2)[nH]c2c1CCCC2, the T/C [13] is reported as 109 % of control and the T/C [14] is reported as 117 % of control.
